Results from ChEMBL document CHEMBL3988442, “University of Dundee, Small-Polar-MMV Screening Library” (2021).
Where “and” joins values, the source holds several entries; their conditions need not be identical. Equal values may be shown once.

Key:
[1] = To identify inhibition of the IFN signalling (Jak-Stat) pathway via expression of an eGFP reporter gene under the control of an IFN-stimulated response element (ISRE) containing MxA promoter.; format: functional, Homo sapiens
[2] = molecular target: AMP-activated protein kinase, AMPK; test: AMP-dependent Kinase enzyme assay. An in vitro enzyme assay that detects ADP turnover that is directly proportional to AMPK activity. This uses naive AMPK that is activated during the assay with MK-8722; format: functional, Homo sapiens
[3] = molecular target: T1, Ubiquitin-activating enzyme e1, putative (Leishmania donovani (strain BPK282A1), UniProt E9BSI1); test: Leishmania donovani Ubiquitin Activating Enzyme (LdE1); format: functional
T1 sequence (E9BSI1 whole entry): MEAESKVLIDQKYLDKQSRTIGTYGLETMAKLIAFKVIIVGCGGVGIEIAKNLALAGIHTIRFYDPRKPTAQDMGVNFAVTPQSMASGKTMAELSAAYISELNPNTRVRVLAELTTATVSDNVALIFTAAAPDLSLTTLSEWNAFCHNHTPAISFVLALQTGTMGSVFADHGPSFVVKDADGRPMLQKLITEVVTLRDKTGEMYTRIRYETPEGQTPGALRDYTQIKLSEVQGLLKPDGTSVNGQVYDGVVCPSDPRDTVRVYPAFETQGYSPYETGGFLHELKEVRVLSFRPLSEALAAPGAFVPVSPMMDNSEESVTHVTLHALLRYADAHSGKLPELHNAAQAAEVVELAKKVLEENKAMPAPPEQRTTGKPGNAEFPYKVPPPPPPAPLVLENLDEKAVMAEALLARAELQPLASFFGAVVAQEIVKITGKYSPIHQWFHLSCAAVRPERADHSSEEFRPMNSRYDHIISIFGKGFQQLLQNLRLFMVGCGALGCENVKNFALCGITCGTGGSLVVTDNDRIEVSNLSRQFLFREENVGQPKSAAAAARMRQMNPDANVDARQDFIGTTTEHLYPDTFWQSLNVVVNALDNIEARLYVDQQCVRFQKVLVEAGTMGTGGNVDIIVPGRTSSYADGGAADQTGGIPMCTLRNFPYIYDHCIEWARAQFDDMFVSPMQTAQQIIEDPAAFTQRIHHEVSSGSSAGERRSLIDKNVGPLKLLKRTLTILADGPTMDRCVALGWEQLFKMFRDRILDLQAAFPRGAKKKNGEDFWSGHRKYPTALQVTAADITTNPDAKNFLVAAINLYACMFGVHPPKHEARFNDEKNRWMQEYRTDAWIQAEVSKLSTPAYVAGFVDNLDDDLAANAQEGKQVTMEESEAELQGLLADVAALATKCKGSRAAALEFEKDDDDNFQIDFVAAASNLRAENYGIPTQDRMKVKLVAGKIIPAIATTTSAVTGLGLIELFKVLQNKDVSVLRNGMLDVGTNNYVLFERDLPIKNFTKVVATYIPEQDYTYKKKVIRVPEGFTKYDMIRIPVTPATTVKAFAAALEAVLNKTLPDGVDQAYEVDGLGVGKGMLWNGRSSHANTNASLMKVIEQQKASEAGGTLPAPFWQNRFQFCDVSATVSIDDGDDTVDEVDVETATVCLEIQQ

[4] = molecular target: Polyketide synthase Pks13 (Mycobacterium tuberculosis (strain ATCC 25618 / H37Rv), UniProt I6X8D2); test: Mycobacterium tuberculosis Polyketide synthase 13 Thioesterase (PKS13); format: functional
Leishmania donovani = test: Leishmania intramacrophage assay; format: functional, organism-based; conditions: for IC50: Leishmania donovani
Trypanosoma brucei = test: Trypanosoma brucei 72 hour study; format: functional, organism-based
Histidine--tRNA ligase [5] = molecular target: T2, Histidine--tRNA ligase (Trypanosoma cruzi (strain CL Brener), UniProt Q4DA54); test: Trypanosoma cruzi histidyl tRNA synthetase (Tc-HisRS); format: functional
T2 sequence (Q4DA54 whole entry): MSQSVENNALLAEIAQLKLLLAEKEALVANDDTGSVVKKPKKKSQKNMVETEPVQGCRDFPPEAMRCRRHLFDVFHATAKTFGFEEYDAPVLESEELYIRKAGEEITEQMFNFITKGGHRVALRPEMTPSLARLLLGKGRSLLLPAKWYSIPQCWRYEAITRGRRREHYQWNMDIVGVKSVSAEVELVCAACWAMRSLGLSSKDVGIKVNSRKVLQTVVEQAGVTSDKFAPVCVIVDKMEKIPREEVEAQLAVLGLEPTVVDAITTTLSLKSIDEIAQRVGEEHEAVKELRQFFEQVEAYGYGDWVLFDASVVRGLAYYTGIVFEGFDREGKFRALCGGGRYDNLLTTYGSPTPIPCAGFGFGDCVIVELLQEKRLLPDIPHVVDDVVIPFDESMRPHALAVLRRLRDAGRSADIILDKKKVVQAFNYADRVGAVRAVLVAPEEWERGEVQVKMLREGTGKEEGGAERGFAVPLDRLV

Histidine--tRNA ligase [6] = molecular target: T3, Histidine--tRNA ligase (Leishmania infantum, UniProt A4I591); test: Leishmania infantum Histidine tRNA synthetase (LdHisRS); format: functional
T3 sequence (A4I591 whole entry): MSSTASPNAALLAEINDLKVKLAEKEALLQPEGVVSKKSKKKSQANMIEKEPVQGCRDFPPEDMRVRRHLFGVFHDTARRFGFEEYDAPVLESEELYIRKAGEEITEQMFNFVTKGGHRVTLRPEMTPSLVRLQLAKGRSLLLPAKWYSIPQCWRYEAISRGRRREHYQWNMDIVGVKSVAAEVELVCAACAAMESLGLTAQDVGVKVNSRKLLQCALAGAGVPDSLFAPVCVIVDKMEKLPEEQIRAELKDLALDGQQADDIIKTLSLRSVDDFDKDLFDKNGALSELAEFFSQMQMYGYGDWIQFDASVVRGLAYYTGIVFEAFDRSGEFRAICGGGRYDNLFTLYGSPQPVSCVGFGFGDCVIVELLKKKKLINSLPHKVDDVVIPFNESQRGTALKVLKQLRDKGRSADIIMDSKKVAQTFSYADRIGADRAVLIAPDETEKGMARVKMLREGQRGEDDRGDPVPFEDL

Lysine--tRNA ligase = Lysine--tRNA ligase (Plasmodium falciparum (isolate 3D7), UniProt Q8IDJ8); test: Pf-KRS-1 (Lysyl-RNA Synthetase-1, KRS-1, cytosolic KRS) from Plasmodium falciparum. Inhibitor assay, 384 well plate, luminescence read.; format: functional
Sequence of Lysine--tRNA ligase (Q8IDJ8 whole entry): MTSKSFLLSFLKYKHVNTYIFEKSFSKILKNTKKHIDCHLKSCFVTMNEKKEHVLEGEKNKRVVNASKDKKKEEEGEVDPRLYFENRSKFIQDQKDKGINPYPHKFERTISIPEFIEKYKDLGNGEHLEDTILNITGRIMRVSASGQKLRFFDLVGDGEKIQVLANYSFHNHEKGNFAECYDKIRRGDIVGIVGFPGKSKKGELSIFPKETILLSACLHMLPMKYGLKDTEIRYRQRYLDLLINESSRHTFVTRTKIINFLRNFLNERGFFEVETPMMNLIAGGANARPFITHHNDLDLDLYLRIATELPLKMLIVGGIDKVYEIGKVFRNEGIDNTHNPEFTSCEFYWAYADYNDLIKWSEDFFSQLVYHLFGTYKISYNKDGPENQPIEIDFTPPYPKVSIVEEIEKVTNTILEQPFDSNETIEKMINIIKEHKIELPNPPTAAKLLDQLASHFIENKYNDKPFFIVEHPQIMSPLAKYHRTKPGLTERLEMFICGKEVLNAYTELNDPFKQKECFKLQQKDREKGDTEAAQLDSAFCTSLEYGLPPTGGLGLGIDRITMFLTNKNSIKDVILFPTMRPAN

Sequence of Polyketide synthase Pks13 (I6X8D2 whole entry): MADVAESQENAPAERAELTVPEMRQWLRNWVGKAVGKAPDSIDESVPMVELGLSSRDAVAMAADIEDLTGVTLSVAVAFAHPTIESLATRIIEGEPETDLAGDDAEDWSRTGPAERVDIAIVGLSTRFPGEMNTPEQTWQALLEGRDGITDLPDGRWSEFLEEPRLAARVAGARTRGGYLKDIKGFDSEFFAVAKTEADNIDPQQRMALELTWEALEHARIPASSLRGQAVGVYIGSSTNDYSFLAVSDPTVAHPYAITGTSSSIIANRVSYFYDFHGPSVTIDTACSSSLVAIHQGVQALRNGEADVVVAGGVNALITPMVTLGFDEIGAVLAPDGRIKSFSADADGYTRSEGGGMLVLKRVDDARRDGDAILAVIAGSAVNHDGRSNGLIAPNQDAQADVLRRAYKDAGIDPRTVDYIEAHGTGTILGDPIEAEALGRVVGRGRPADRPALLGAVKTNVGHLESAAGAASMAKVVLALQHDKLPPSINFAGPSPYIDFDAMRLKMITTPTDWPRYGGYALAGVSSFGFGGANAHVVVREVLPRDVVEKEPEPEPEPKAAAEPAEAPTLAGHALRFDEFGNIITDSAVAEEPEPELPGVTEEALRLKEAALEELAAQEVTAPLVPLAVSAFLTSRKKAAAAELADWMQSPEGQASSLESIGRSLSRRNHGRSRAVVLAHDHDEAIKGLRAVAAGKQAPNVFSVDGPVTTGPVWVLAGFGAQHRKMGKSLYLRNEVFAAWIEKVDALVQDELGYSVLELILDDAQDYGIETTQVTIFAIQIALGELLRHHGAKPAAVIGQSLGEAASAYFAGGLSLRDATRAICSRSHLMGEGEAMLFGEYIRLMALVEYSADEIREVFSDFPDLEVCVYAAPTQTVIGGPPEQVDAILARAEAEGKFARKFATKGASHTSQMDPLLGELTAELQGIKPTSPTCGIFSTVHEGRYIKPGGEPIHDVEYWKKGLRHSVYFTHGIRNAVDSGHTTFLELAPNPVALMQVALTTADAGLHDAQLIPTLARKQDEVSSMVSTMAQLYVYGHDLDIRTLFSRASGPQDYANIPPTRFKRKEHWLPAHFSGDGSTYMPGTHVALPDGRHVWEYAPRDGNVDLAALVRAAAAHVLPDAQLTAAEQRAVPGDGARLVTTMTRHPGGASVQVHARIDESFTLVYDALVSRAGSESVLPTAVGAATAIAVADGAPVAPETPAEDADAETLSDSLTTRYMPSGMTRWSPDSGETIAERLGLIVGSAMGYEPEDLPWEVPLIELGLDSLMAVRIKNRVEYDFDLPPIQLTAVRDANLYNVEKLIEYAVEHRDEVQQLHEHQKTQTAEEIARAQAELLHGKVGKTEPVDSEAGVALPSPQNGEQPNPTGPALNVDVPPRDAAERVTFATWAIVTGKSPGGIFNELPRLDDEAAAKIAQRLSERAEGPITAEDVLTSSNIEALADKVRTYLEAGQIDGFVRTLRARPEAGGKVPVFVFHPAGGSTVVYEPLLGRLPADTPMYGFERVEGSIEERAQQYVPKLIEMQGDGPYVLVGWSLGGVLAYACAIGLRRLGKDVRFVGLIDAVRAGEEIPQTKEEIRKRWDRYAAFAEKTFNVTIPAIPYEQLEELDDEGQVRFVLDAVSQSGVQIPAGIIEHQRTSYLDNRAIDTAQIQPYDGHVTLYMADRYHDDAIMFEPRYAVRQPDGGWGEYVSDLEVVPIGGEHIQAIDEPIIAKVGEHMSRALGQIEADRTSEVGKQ

Compound	pIC50 [1]	also measured
CC(C)(C)C(=O)N1C[C@H](c2ccsc2)[C@H]2CN(Cc3cccs3)CC[C@H]21.Cl	4.58 and 4.539	
CC(C)c1nc2n(n1)CC(NCc1nnc(C(C)C)o1)CC2 (stereo unspecified)		pIC50 [2]: < 4; IC50 [3]: > 100 µM
O=C(O)C(F)(F)F.O=C(c1ncccn1)N1C[C@H]2CCC[C@@]2(COCc2cccnc2)C1	< 4.21	
Cc1n[nH]cc1CNc1ccc2c(c1)CN(C(=O)OC(C)(C)C)CC2	4.816 and 4.848	
O=C(O)C(F)(F)F.O=C(O)C(F)(F)F.O=C(O)C(F)(F)F.c1ccc(CO[C@@H]2CO[C@@]3(CCN(Cc4ccccn4)C3)C2)nc1	< 4.21	
CC(C)c1nnc2ccc(N3CCC(C(=O)Nc4nccs4)CC3)nn12	5 and 4.933	
Cc1nc(C)n(C2CCCN(C(=O)c3ccc(N(C)C)nn3)C2)n1 (stereo unspecified)	< 4.21	
Cc1cccc(NC(=O)c2[nH]nc(C(C)C)c2Br)n1		pIC50 [2]: < 4; IC50 [4]: > 100 µM
Cc1cc(-c2cnc(NCc3cccnc3)nc2C(C)C)on1	4.396 and 4.538	
O=C(NCc1ccccc1)c1nnc2ccc(N3CCOCC3)cc2n1		pIC50 [2]: < 4; IC50 [4]: 16 µM and 24.5 µM
CC(=O)c1c(F)cccc1N1CCC(Cc2cccnc2)CC1	5.268 and 5.138	
FC1(F)CCN(Cc2ccccn2)CC12CCN(c1cccnc1)C2.O=C(O)C(F)(F)F.O=C(O)C(F)(F)F.O=C(O)C(F)(F)F (stereo unspecified)		IC50 (Leishmania donovani): > 50.1 µM; pIC50 [2]: < 4
CC(=O)c1ccc(N2CCCC(CO)(CCOc3ccccc3)C2)nc1 (stereo unspecified)	4.524 and 4.702	
CC(C)(O)C1CCN(C(=O)Nc2nc(-c3ccccc3)ns2)CC1	4.605 and 4.639	
COCC1c2c(cnn2CC2CC2)CCN1Cc1ccc(OC)cc1 (stereo unspecified)	5.287 and 5.465	
Cc1ccc(CC(=O)Nc2cc(C(C)C)n[nH]2)cn1		pIC50 (Leishmania donovani): 4.917; IC50 (Leishmania donovani): 11.7 µM; pIC50 (Trypanosoma brucei): 4.869 and 4.956; IC50 (Trypanosoma brucei; Trypanosoma brucei, 72 h): 12.7 µM; pIC50 [2]: < 4
Cc1nc(C)n(CC2CCCN(c3ncnc4c3CCC4)C2)n1 (stereo unspecified)	5.177 and 5.243	
CC(C)N1Cc2c(C(=O)N3CCOCC3)nn(C)c2C1.O=C(O)C(F)(F)F.O=C(O)C(F)(F)F	< 4.21	
COc1ncccc1NC(=O)N(Cc1ccc(C)o1)C1CC1	4.53 and 4.637	
CC(C)C1CCCN1C(=O)Nc1ccc(=O)n(C)c1 (stereo unspecified)		IC50 (Histidine--tRNA ligase [5]): 19 µM and 22.3 µM; pIC50 [2]: < 4; IC50 (Histidine--tRNA ligase [6]): 1.01 µM and 1.02 µM and 2.81 µM and 2.75 µM; IC50 (Lysine--tRNA ligase): > 50.1 µM
Cc1nc(CCNC(=O)NCc2ccc(N(C)C)nc2)cs1	< 4.21	
CCn1ncc2c1CCCC2NCc1cc(Cl)c(OC)c(OC)c1 (stereo unspecified)	4.746 and 4.672	
CN(Cc1ccco1)[C@@H]1CN(C(=O)c2ccnnc2)[C@@H]2CCCO[C@H]12.O=C(O)C(F)(F)F	< 4.21	
CCc1ccc(CN2C[C@@H]3OCCN(c4ccnc(N(C)C)n4)[C@@H]3C2)o1.O=C(O)C(F)(F)F	5.071 and 5.204	
O=C(Cc1noc2ccccc12)N1CCCC1c1noc(C2CC2)n1 (stereo unspecified)	4.845 and 4.787	
